SMILES strings stand for the structures.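 1) Cells in 96-well plates. 2) Compound, 48 h, 5 concentrations. 3) Linear interpolation between surrounding doses. 4) Unreached endpoint = highest concentration. The concentration for 50% growth inhibition is given as GI50.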 Active and inactive are the calls of the source. Cut-off read from the data, not from the text of the source: active = GI50 up to about 1.1 µM and inactive = higher. Where only a bound is given, the exact number is not on record here.

Test systems include A498; BT-549; CCRF-CEM; COLO 205; DU-145; HCT-116; KM12; M14; MCF7; MDA-MB-231; NCI-H23; NCI-H460; NCI/ADR-RES; OVCAR-3; OVCAR-5; SK-MEL-5; SNB-19; SNB-75.
Experiment in all cases: NCI tumour cell line growth inhibition, 48 h

With `COc1cc(OC)c(/C=C/c2cnc3ccccc3n2)c(OC)c1`, the GI50 in the assay with A498, with BT-549, in the assay on CCRF-CEM, in the assay on COLO 205, in the assay on DU-145 and with HCT-116 was > 10 µM (inactive) each time. Further, the GI50 with KM12, in the assay on M14, in the assay on MCF7, in the assay on MDA-MB-231, in the assay on NCI-H23 and in the assay on NCI-H460 was > 10 µM (inactive) each time. Besides, the GI50 in the assay with NCI/ADR-RES, with OVCAR-3, in the assay on OVCAR-5, with SK-MEL-5, in the assay on SNB-19 and with SNB-75 was > 10 µM (inactive) throughout.
On to `Cc1ccccc1-n1c(=O)nc2n(-c3ccc(C(C)(C)C)cc3)c3ccccc3cc-2c1=O`, for which the GI50 in the assay on A498 is 30.5 µM (inactive); in the assay on BT-549, 25.7 µM (inactive); with CCRF-CEM it was 19.8 µM (inactive); in the assay with COLO 205, 18.5 µM (inactive); with DU-145 it was 21.1 µM (inactive); with HCT-116 it was 15.5 µM (inactive). In addition, the GI50 in the assay with KM12 was 15.3 µM (inactive); in the assay on M14, 17.7 µM (inactive); in the assay on MCF7, 22.9 µM (inactive); in the assay with MDA-MB-231 it was 19 µM (inactive); in the assay with NCI-H23, 21.7 µM (inactive); in the assay on NCI-H460, 15.3 µM (inactive). The GI50 is 16.7 µM (inactive) with NCI/ADR-RES; 18.4 µM (inactive) in the assay with OVCAR-3; 25.9 µM (inactive) with OVCAR-5; 15.1 µM (inactive) in the assay on SK-MEL-5; 21.5 µM (inactive) with SNB-19; 22.3 µM (inactive) in the assay on SNB-75.
For `N#Cc1c(N)nc2c(/N=N\c3ccccc3)c(N)nn2c1Nc1ccccc1`, the GI50 is 21.7 µM (inactive) with A498; 23.9 µM (inactive) in the assay with BT-549; 4.37 µM (inactive) with CCRF-CEM; 9.93 µM (inactive) in the assay on COLO 205; 18.2 µM (inactive) in the assay on DU-145; 9.38 µM (inactive) in the assay with HCT-116. The GI50 in the assay with KM12 was 4.75 µM (inactive); in the assay on M14, 12.1 µM (inactive); in the assay with MCF7 it was 1.51 µM (inactive); in the assay with MDA-MB-231, 16 µM (inactive); in the assay on NCI-H23, 4.55 µM (inactive); with NCI-H460, 10.1 µM (inactive). For the same compound, the GI50 in the assay on NCI/ADR-RES was 20.4 µM (inactive); with OVCAR-3 it was 13.9 µM (inactive); in the assay on OVCAR-5 it was 26.7 µM (inactive); with SK-MEL-5, 14.9 µM (inactive); with SNB-19, 18.5 µM (inactive); with SNB-75, 34.3 µM (inactive).
As for `COc1cc(C2C3=C(COC3=O)Oc3cc4c(cc32)OCO4)ccc1OC(C)=O` (stereo not drawn), the GI50 in the assay on A498 is 1.53 µM (inactive); in the assay with BT-549, 0.222 µM (active); with CCRF-CEM, 0.35 µM (active); with COLO 205, 0.224 µM (active); in the assay with DU-145 it was 0.492 µM (active); with HCT-116 it was 0.398 µM (active). Besides, the GI50 in the assay with KM12 is 0.255 µM (active); in the assay with M14 it was 0.498 µM (active); with MCF7, 0.29 µM (active); in the assay with MDA-MB-231 it was 0.436 µM (active); with NCI-H23, 0.67 µM (active); in the assay on NCI-H460 it was 0.45 µM (active). For the same compound, the GI50 with NCI/ADR-RES was 0.279 µM (active); in the assay on OVCAR-3, 0.244 µM (active); with OVCAR-5, 5.22 µM (inactive); in the assay on SK-MEL-5, 0.106 µM (active); in the assay with SNB-19, 0.35 µM (active); in the assay with SNB-75 it was 0.168 µM (active).
Turning to `COc1ccc(/C=C2\CC3C4CC=C5C[C@@H](N6CCCC6)CC[C@]5(C)C4CC[C@]3(C)[C@H]2O)cc1OC` (stereo partly drawn), the GI50 was 8.2 µM (inactive) in the assay with A498; 8.87 µM (inactive) in the assay on BT-549; 8.17 µM (inactive) with CCRF-CEM; 8.38 µM (inactive) in the assay on COLO 205; 11.2 µM (inactive) with DU-145; 8.24 µM (inactive) with HCT-116. Further, the GI50 is 6.56 µM (inactive) in the assay on KM12; 9.44 µM (inactive) with M14; 7.55 µM (inactive) in the assay with MCF7; 7.85 µM (inactive) with MDA-MB-231; 9.04 µM (inactive) in the assay with NCI-H23; 9.16 µM (inactive) in the assay with NCI-H460. Further, the GI50 in the assay with NCI/ADR-RES was 9.02 µM (inactive); in the assay with OVCAR-3, 8.32 µM (inactive); with OVCAR-5 it was 10.2 µM (inactive); with SK-MEL-5, 7.26 µM (inactive); in the assay with SNB-19, 10.4 µM (inactive); with SNB-75 it was 12.2 µM (inactive).
Take `N#Cc1nnn(C2CCCCC2)c1O`: the GI50 with A498, with BT-549, with CCRF-CEM, with COLO 205, with DU-145 and in the assay with HCT-116 was > 100 µM (inactive) each time. For the same compound, the GI50 in the assay with KM12, in the assay with M14, in the assay on MCF7, in the assay on MDA-MB-231, in the assay with NCI-H23 and in the assay with NCI-H460 was > 100 µM (inactive) each time. Moreover, the GI50 with NCI/ADR-RES, with OVCAR-3, in the assay on OVCAR-5, in the assay on SK-MEL-5, in the assay with SNB-19 and in the assay with SNB-75 was > 100 µM (inactive) throughout.
Regarding `Cc1c(C#N)c(=N)oc2ccccc12`, the GI50 with A498 is > 100 µM (inactive); in the assay with BT-549, > 100 µM (inactive); with CCRF-CEM, > 10 µM (inactive); with COLO 205, > 100 µM (inactive); in the assay with DU-145, > 100 µM (inactive); with HCT-116, > 100 µM (inactive). The GI50 in the assay on KM12, in the assay on M14, in the assay with MCF7, with MDA-MB-231, in the assay on NCI-H23 and in the assay on NCI-H460 was > 100 µM (inactive) throughout. Besides, the GI50 in the assay with NCI/ADR-RES is > 100 µM (inactive); in the assay on OVCAR-3, > 100 µM (inactive); with OVCAR-5, > 100 µM (inactive); in the assay with SK-MEL-5, > 100 µM (inactive); with SNB-19, > 100 µM (inactive); in the assay with SNB-75, 57.5 µM (inactive).
For the compound `O=c1c2sc(=S)n(-c3ccc(F)cc3)c2ncn1/N=C/c1ccc(F)cc1F`, the GI50 in the assay on A498 is 19.3 µM (inactive); in the assay with BT-549, 15.4 µM (inactive); with CCRF-CEM it was 63.7 µM (inactive); with COLO 205, > 100 µM (inactive); in the assay with DU-145, 19 µM (inactive); with HCT-116, 31 µM (inactive). Also, the GI50 with KM12 was 79.8 µM (inactive); in the assay on M14, 23.2 µM (inactive); in the assay with MCF7, 41.5 µM (inactive); with MDA-MB-231 it was 21.1 µM (inactive); in the assay on NCI-H23, 33.4 µM (inactive); in the assay on NCI-H460, 39.2 µM (inactive). Also, the GI50 with NCI/ADR-RES is 33 µM (inactive); in the assay on OVCAR-3 it was 30.1 µM (inactive); in the assay with OVCAR-5, 32.2 µM (inactive); in the assay on SK-MEL-5, 58.1 µM (inactive); with SNB-19, 26.6 µM (inactive); in the assay with SNB-75, 16 µM (inactive).
Consider `COc1ccc(/N=N/C(=O)NC(CC(C)C)C(=O)NCC(=O)O)cc1` (stereo not drawn), for which the GI50 is > 100 µM (inactive) in the assay with A498; > 38.7 µM (inactive) with BT-549; 9.31 µM (inactive) in the assay on CCRF-CEM; 4.47 µM (inactive) in the assay with COLO 205; 12.2 µM (inactive) with DU-145; 12.5 µM (inactive) in the assay on HCT-116. Moreover, the GI50 was 3.76 µM (inactive) with KM12; 2.94 µM (inactive) with M14; 13.2 µM (inactive) in the assay with MCF7; > 58.2 µM (inactive) with MDA-MB-231; 57.3 µM (inactive) in the assay on NCI-H23; 6.65 µM (inactive) in the assay on NCI-H460. Also, the GI50 in the assay with NCI/ADR-RES is 19.5 µM (inactive); in the assay on OVCAR-3, 19.8 µM (inactive); in the assay with OVCAR-5, 13.5 µM (inactive); in the assay on SK-MEL-5, 3.79 µM (inactive); in the assay with SNB-19, > 92.5 µM (inactive); with SNB-75, 89.5 µM (inactive).
For the compound `C1C2CC3CC1CC(Nc1nc(NC45CC6CC(CC(C6)C4)C5)nc(NC45CC6CC(CC(C6)C4)C5)n1)(C2)C3`, the GI50 in the assay with A498 was > 51.4 µM (inactive); in the assay on BT-549, > 68.2 µM (inactive); in the assay with CCRF-CEM, > 92.9 µM (inactive); in the assay on COLO 205 it was 28.7 µM (inactive); in the assay on DU-145, 42 µM (inactive); with HCT-116, > 51.9 µM (inactive). Besides, the GI50 was 22.1 µM (inactive) in the assay with KM12; 44 µM (inactive) with M14; 55.1 µM (inactive) in the assay on MCF7; > 100 µM (inactive) in the assay with MDA-MB-231; > 43.9 µM (inactive) in the assay on NCI-H23; 66.4 µM (inactive) in the assay with NCI-H460. The GI50 is 9.31 µM (inactive) in the assay on NCI/ADR-RES; > 23.6 µM (inactive) in the assay on OVCAR-3; > 92.3 µM (inactive) in the assay on OVCAR-5; 14.3 µM (inactive) in the assay on SK-MEL-5; 43.5 µM (inactive) in the assay on SNB-19; 16.9 µM (inactive) in the assay with SNB-75.
As to `CS(=O)(=O)O[C@H]1[C@H](O)c2ccccc2[C@@H]1N=[N+]=[N-]`, the GI50 with A498, in the assay on BT-549, with CCRF-CEM, in the assay with COLO 205, in the assay with DU-145 and in the assay on HCT-116 was > 100 µM (inactive) in each case. In addition, the GI50 in the assay on KM12, in the assay with M14, in the assay with MCF7, with MDA-MB-231, with NCI-H23 and in the assay with NCI-H460 was > 100 µM (inactive) in each case. Also, the GI50 is > 100 µM (inactive) in the assay with NCI/ADR-RES; > 100 µM (inactive) in the assay on OVCAR-3; > 100 µM (inactive) in the assay with OVCAR-5; > 100 µM (inactive) with SK-MEL-5; > 100 µM (inactive) in the assay with SNB-19; 21.4 µM (inactive) in the assay with SNB-75.

(Values after ChEMBL document CHEMBL1201862, “PubChem BioAssay data set” (2004).)
